Measurements taken from article PMC8936434 (Frontiers in Pharmacology, 2022).
Like-named read-outs stand apart in the source and are kept apart here.

Experiments:
SW1573 = experiment: In vitro P-gp assay: antiproliferative activity in wild-type SW1573 cells; assay type: cell-based; details: Homo sapiens
Method: (§1) Compounds were tested against both cell lines in the presence or absence of 10 µM verapamil (a known P-gp and CYP3A4/5 inhibitor).

[1] = In vitro P-gp assay: antiproliferative activity in P-gp-overexpressing SW1573/P-gp cells; details: human
Method: as §1

HepG2 cells [2] = experiment: HepG2 cell viability (MTT assay); assay type: cell-based; details: Homo sapiens, mean ± SD, 3 experiments
Method: Human hepatoma (HepG2) cells (European Collection of Authenticated Cell Cultures) were cultured in Dulbecco’s modified Eagle’s medium (DMEM) supplemented with 10% heat-inactivated fetal bovine serum (FBS) and 2 mM L-glutamine at 37°C in 5% CO2 humidified atmosphere.

HepG2 cells [3] = experiment: LDH release from HepG2 cells; assay type: cell-based, Human
primary rat hepatocytes [4] = experiment: Primary rat hepatocyte viability (trypan blue exclusion assay); assay type: cell-based; details: read-out: IC50, number of viable cells
primary rat hepatocytes [5] = experiment: LDH release from primary rat hepatocytes; assay type: cell-based
hERG K+ channel (Kv11.1) = hERG K+ channel (Kv11.1) (Homo sapiens, UniProt Q12809); experiment: hERG (Kv11.1) current, whole-cell patch-clamp in hERG-HEK293 cells; assay type: cell-based
hERG K+ channel (Kv11.1), sequence (Q12809 whole entry): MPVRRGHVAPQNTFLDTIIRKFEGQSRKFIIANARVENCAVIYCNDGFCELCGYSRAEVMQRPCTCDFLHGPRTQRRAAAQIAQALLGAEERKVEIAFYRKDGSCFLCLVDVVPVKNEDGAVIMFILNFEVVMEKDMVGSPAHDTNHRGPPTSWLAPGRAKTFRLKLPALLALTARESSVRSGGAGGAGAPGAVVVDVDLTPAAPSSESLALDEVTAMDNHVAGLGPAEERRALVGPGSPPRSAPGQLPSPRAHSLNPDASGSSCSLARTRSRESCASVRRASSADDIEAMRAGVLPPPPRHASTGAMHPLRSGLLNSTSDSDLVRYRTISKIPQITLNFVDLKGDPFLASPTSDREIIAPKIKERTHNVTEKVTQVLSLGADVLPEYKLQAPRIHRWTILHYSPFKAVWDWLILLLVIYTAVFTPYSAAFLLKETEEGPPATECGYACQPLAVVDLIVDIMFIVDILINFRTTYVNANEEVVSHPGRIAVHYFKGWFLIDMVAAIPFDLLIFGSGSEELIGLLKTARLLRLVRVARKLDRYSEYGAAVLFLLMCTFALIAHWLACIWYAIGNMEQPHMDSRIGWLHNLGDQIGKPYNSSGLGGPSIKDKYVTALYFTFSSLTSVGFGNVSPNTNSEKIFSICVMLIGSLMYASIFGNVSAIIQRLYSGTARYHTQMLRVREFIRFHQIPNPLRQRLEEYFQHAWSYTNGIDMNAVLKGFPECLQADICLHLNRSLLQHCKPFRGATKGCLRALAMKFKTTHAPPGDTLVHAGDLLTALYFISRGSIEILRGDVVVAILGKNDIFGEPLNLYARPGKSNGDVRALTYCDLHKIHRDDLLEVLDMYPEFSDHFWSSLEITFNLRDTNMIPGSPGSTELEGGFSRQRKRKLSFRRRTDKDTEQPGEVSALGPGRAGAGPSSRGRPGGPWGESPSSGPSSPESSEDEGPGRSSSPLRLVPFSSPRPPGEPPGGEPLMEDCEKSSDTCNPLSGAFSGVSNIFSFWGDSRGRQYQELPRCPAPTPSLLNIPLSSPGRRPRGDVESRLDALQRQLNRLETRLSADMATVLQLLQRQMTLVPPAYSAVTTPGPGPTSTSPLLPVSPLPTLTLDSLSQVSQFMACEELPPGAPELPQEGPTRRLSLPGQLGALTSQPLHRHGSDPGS
Method: hERG-HEK293 cells (BPS Bioscience, San Diego, United States), expressing hERG K^+ channel (Kv11.1), were cultured in Minimal Essential Medium (MEM) supplemented with 10% fetal bovine serum, 1% non-essential amino acids, 1% Na pyruvate, 1% penicillin/streptomycin, and 400 μg/ml geneticin ([Lazzerini et al., 2021]).
The bath solution contained (in mM): 136 NaCl, 5.4 KCl, 10 HEPES, 10 D-glucose ∙ H2O, 1 CaCl2 ∙ 2 H2O, 1 MgCl2 ∙ 6 H2O, pH 7.4 with NaOH, whereas the pipette solution consisted of (in mM): 130 KCl, 10 EGTA, 10 HEPES, 5 MgATP, 1 MgCl2 ∙ 6 H2O, pH 7.2 with KOH.
Whole-cell recording was performed as previously described ([Lazzerini et al., 2021]), and a depolarizing step from a holding potential of […] was applied to elicit the Kv11.1 current. Tail current was evoked by repolarizing the cell membrane to −50 mV for 4 s.

zebrafish ABCB4 = tested on: zebrafish ABCB4; set-up: method as in earlier work; details: concentrations up to 100 µM; ref [67]; cited from earlier work
SW1573/P-gp = experiment: In vitro P-gp assay: antiproliferative activity in P-gp-overexpressing SW1573/P-gp cells; details: P-gp-overexpressing cells
Method: as §1

primary rat hepatocytes [6] = experiment: GSH depletion in isolated rat hepatocytes; assay type: cell-based; details: compared to Dox
Method: Gluthatione (GSH) depletion was evaluated after 24, 48, or 72 h treatment with both anthracyclines. Isolated rat hepatocytes were centrifuged at 400 g for 3 min, and the pellet was used for measuring intracellular GSH by means of the spectrophotometric method based on the conversion of the sulfhydryl reagent 5,5′-dithiobis-(2-nitrobenzoic acid) (DTNB) to the yellow derivative 5′-thio-2-nitrobenzoic acid (TNB) at 412 nm ([Fau et al., 1992]).

zebrafish embryos = experiment: Zebrafish embryo toxicity
Method: After 30 min, the eggs were collected, rinsed twice from debris using fresh embryo medium (Instant ocean), and transferred into Petri dishes containing the embryo medium.
Fertilized eggs were selected under a binocular stereomicroscope (PXS-VI, Optica) and transferred into 24-well plates. […] The embryo medium and 0.1% DMSO were used as controls. Treated embryos and controls were then incubated at 28 ± 0.5°C. Each experiment was repeated three times from three independent breedings. In each experiment, at least 3 wells with 12 embryos per treatment per concentration were used.
The zebrafish embryo toxicity assay was performed when fertilization rate was ≥90%. An assay was considered valid if the overall survival of embryos in negative controls was ≥90% until hatching.
All embryos were inspected for morphological characteristics at different developmental stages (48 and 72 hpf) as described by [Kimmel (1989)]. Lethal and teratogenic effects were recorded according to the Organisation for Economic Co-operation and Development (OECD) (236) guidelines for testing of chemicals. Mortality was determined by counting embryos with or without a visible heart beat at 72 hpf. For visual documentation of the malformations and heartbeat, embryos were imaged and recorded using a camera connected to the microscope (CKX41; Olympus, Tokyo, Japan). Each heartbeat was manually counted for 20 s and multiplied by 3 to calculate heart rate (beat/minute) ([Hoage et al., 2012]). At least three embryos per group were recorded and their heart beat counted.

recombinant human CYP3A4 = recombinant human CYP3A4 (Homo sapiens, UniProt P08684); experiment: In vitro inhibition of human CYP3A4
recombinant human CYP3A4, sequence (P08684 whole entry): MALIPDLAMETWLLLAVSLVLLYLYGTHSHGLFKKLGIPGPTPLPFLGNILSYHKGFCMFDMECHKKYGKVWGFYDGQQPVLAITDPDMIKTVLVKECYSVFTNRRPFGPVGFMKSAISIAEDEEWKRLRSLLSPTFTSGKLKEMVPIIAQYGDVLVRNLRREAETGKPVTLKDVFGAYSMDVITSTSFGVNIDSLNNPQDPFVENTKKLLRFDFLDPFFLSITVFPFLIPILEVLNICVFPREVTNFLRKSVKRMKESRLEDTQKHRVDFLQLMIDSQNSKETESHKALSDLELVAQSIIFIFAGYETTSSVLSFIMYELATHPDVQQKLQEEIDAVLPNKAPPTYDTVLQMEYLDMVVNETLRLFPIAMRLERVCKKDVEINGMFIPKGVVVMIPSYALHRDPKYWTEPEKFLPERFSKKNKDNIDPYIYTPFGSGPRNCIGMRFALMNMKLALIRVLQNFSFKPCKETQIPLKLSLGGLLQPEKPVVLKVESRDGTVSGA
Method: Kinetic assays were carried out in a final volume of 100 µl containing 10 µM substrate, 2.5 nM recombinant CYP3A4, various concentrations of the tested compounds, and 20% NADPH regenerating system in 100 mM Tris–HCl (pH 7.4). Incubations took place in duplicate at 37°C in 96-multiwell plates; fluorescence was measured with a Victor2 plate reader (PerkinElmer Life Sciences, Turku, Finland). The reaction was started by adding NADPH, and fluorescence was measured at 2-min intervals for 40 min using excitation at 405 nm and emission at 460 nm.

primary rat hepatocytes [7] = experiment: Lipid peroxidation (MDA) in primary rat hepatocytes; details: compared to Dox
[8] = 10 µM applied at 6 hpf, read at 72 hpf

Question: Which GI50 (SW1573; SW1573, 48 h) does the source give for `COc1cc2c(c(OC)c1OC)-c1ccc(OC)c(=O)cc1[C@@H](NC(C)=O)CC2` [Colchicine, colchicine] here?
Answer: 0.067 ± 0.015 µM

Question: And the GI50 at 48 h [1]?
Answer: 2.37 µM

Question: With `COc1cccc2c1C(=O)c1c(O)c3c(c(O)c1C2=O)C[C@@](O)(C(=O)CO)C[C@@H]3O[C@H]1C[C@H](N)[C@H](O)[C@H](C)O1` [Dox, doxorubicin] as the compound, how does the GI50 (SW1573; SW1573, 48 h) read?
Answer: 0.07 ± 0.0086 µM

Question: What about the GI50 at 48 h [1] of the same compound?
Answer: 1.6 µM

Question: What about the IC50 (HepG2 cells [2]; 24 h) of the same compound?
Answer: 6.11 ± 0.66 µM

Question: What about the IC50 (HepG2 cells [2]; 48 h) of the same compound?
Answer: 0.46 ± 0.03 µM

Question: What about the IC50 (HepG2 cells [2]; 72 h) of the same compound?
Answer: 0.19 ± 0.01 µM

Question: And the “LDH release (cytotoxicity) compared with Sdox” value (HepG2 cells [3]; HepG2, regardless of timing of exposure (24, 48, 72 h))?
Answer: cytotoxic at concentrations lower than those of Sdox

Question: And the IC50 (primary rat hepatocytes [4])?
Answer: 9.68 ± 0.89 µM

Question: What about the “Release of LDH” value (primary rat hepatocytes [5]) of the same compound?
Answer: increased the release of LDH in a concentration-dependent manner

Question: And the “Effect on hERG currents” value (hERG K+ channel (Kv11.1); up to 100 μM)?
Answer: did not affect

Question: And the “Effect on zebrafish ABCB4 ATPase activity” value (zebrafish ABCB4)?
Answer: no major effect

Question: For `CC(=O)O[C@H]1C(=O)[C@@]2(C)[C@H]([C@H](OC(=O)c3ccccc3)[C@]3(O)C[C@H](OC(=O)[C@H](O)[C@@H](NC(=O)c4ccccc4)c4ccccc4)C(C)=C1C3(C)C)[C@]1(OC(C)=O)CO[C@@H]1C[C@@H]2O` [Paclitaxel, paclitaxel], which GI50 (SW1573; SW1573, 48 h) is on record?
Answer: 0.00053 ± 0.00022 µM

Question: What about the GI50 at 48 h [1] of the same compound?
Answer: 0.298 ± 0.113 µM

Question: Which GI50 (SW1573; SW1573, 48 h) does the source give for `COc1cccc2c1C(=O)c1c(O)c3c(c(O)c1C2=O)C[C@@](O)(C(=O)COC(=O)c1ccc(-c2ssc(=S)c2-c2ccccc2)cc1)C[C@@H]3O[C@H]1C[C@H](N)[C@H](O)[C@H](C)O1` [Sdox, 2-((2S,4S)-4-(((2R,4S,5S,6S)-4-amino-5-hydroxy-6-methyltetrahydro-2H-pyran-2-yl)oxy)-2,5,12-trihydroxy-7-methoxy-6,11-dioxo-1,2,3,4,6,11-hexahydrotetracen-2-yl)-2-oxoethyl 4-(4-phenyl-3-thioxo-3H-1,2-dithiol-5-yl)benzoate] here?
Answer: 0.873 ± 0.41 µM

Question: And the GI50 [1]?
Answer: 3.02 µM

Question: And the “Times less affected by P-gp compared with parent compound Dox” value (SW1573/P-gp)?
Answer: ca. 6.5 times

Question: What about the IC50 (HepG2 cells [2]; 24 h) of the same compound?
Answer: 8.69 ± 0.31 µM

Question: And the IC50 (HepG2 cells [2]; 48 h)?
Answer: 3.21 ± 0.16 µM

Question: What about the IC50 (HepG2 cells [2]; 72 h) of the same compound?
Answer: 1.39 ± 0.03 µM

Question: And the “Concentration at which LDH release was increased” value (HepG2 cells [3]; HepG2, 24 and 48 h of treatment, only at the maximum concentration tested)?
Answer: 10 µM

Question: And the “Lowest concentration at which LDH release was increased” value (HepG2 cells [3]; HepG2, 72 h of treatment)?
Answer: 4 µM

Question: And the IC50 (primary rat hepatocytes [4])?
Answer: 16.5 ± 1.01 µM

Question: What about the “Release of LDH” value (primary rat hepatocytes [5]) of the same compound?
Answer: increased the release of LDH in a concentration-dependent manner

Question: What about the “Reduced GSH” value (primary rat hepatocytes [6]) of the same compound?
Answer: lower decrease in the reduced GSH

Question: And the “Effect on hERG currents” value (hERG K+ channel (Kv11.1); up to 10 μM)?
Answer: did not affect

Question: What about the “Effect on number of live embryos” value (zebrafish embryos; [8]) of the same compound?
Answer: ineffective

Question: What about the Embryos alive (zebrafish embryos; [8]) of the same compound?
Answer: ~90%

Question: What about the Developmental toxicity (zebrafish embryos; 10 µM, 72 hpf) of the same compound?
Answer: did not display developmental toxicity

Question: What about the “Concentration above which a precipitate was observed” value (zebrafish embryos; zebrafish embryo medium) of the same compound?
Answer: > 10 µM

Question: And the IC50 (recombinant human CYP3A4)?
Answer: 3.1 µM

Question: What about the “MDA levels (index of lipid peroxidation)” value (primary rat hepatocytes [7]) of the same compound?
Answer: lower increase in the MDA levels

Question: Which results are given for `CC[C@]1(O)C[C@@H]2CN(CCc3c([nH]c4ccccc34)[C@@](C(=O)OC)(c3cc4c(cc3OC)N(C)[C@H]3[C@@](O)(C(=O)OC)[C@H](OC(C)=O)[C@]5(CC)C=CCN6CC[C@]43[C@@H]65)C2)C1` [Vinblastine, vinblastine]?
Answer: GI50 (SW1573; SW1573, 48 h): 0.00094 ± 0.00035 µM; GI50 at 48 h [1]: 0.016 ± 0.0047 µM

Question: What does the source list for `CC[C@]1(O)C[C@H]2CN(CCc3c([nH]c4ccccc34)[C@@](C(=O)OC)(c3cc4c(cc3OC)N(C=O)[C@H]3[C@@](O)(C(=O)OC)[C@H](OC(C)=O)[C@]5(CC)C=CCN6CC[C@]43[C@@H]65)C2)C1` [Vincristine, vincristine]?
Answer: GI50 (SW1573; SW1573, w/o verapamil, 48 h exposure, mean ± SD (n = 3–5), read-out: GI50): 0.0039 ± 0.0015 µM; GI50 at 48 h ([1]; SW1573/P-gp cells (P-gp-overexpressing variant of SW1573)): 0.086 ± 0.015 µM
